≈ marks a conversion by molar mass, not a printed value. Entries after “also recorded” stand apart in the source; their conditions may differ.
Legend:
Format in all cases: physicochemical
[1] = Approximate solubility of Compound 1 Form I at 25° C. and 50° C. (visual observation); settings: thermodynamic from solid
Protocol: Max. volume of each solvent added was 1 mL. Approximate solubility was determined by visual observation.

[2] = Equilibration of Compound 1 Form I with solvents at 25° C. for 2 weeks (XRPD)
Protocol: About 30 mg of Compound 1 Form I (free form) was equilibrated in 1 mL of solvent at 25° C. for 2 weeks with a stirring plate. The obtained suspension was filtered. The solid part (wet cake) was investigated b XRPD.

[3] = Equilibration of Compound 1 Form I with solvents at 50° C. for 1 week (XRPD)
Protocol: About 50 mg of Compound 1 Form I (free form) was equilibrated in 1 mL of solvent at 50° C. for 1 week with a stirring plate. The obtained suspension was filtered and the solid part (wet cake) was investigated by XRPD.

[4] = Precipitation of Compound 1 by addition of anti-solvent to DMSO solution (XRPD, residual solvent); settings: for residual DMSO: 1H-NMR after vacuum drying at 80° C. for 2 hours; for Notes (appearance) / XRPD: solvent DMSO
Protocol: About 20 mg of Compound 1 Form I (free form) was dissolved in DMSO and anti-solvent was added into the obtained solution slowly. Precipitates were collected by filtration. The solid part (wet cake) was investigated by XRPD. Residual solvent of these solids was also analyzed by ^1H-NMR after vacuum dried at 80° C. for 2 hours.

[5] = Crystallization of Compound 1 at room temperature by slow evaporation (XRPD)
Protocol: About 20 mg of Compound 1 Form I (free form) was dissolved and filtered by 0.45 μm nylon filter. Obtained solutions were evaporated slowly at ambient condition. Solid residues were examined for their polymorphic form.

[6] = Behavior of Compound 1 Form I under heating and cooling (DSC cycles); settings: for Melting onset: reheat to 300° C. at 10° C./min
Protocol: Polymorphic behavior of Compound 1 Form I (free form) was investigated by two different heating-cooling cycles of DSC. The results were summarized in Table 6. • HCH1: 30° C. to 300° C. at 10° C./min; 300° C. to −20° C. at 20° C./min; reheat to 300° C. at 10° C./min. • HCH2: 30° C. to 300° C. at 10° C./min; 300° C. to −20° C. at 2° C./min; reheat to 300° C. at 10° C./min.

[7] = Scale-up experiment (200 mg) and characterization of new polymorphs of Compound 1
Protocol: Scale-up 1: About 200 mg of Compound 1 Form I was dissolved in 10 mL THF/Water (95:5, v:v) at 40° C. […] Compound 1 Form IV was obtained. It was subjected to characterization.
Scale-up 2: About 200 mg of Compound 1 Form I was dissolved in 10 mL THF/Water (95:5, v:v) at 40° C. […] It was subjected to characterization.

[8] = Water activity study of Compound 1 Form I at 25° C. for 1 week; settings: for change of morphic form in solvents with high water content (water activity study): acetone/water, DMSO/water, pure water, 25° C.
Protocol: Water activity experiments were conducted at 25° C. in 7 different water activities solvent mixtures to determine critical water activity of Compound 1 Form I. About 20 mg of Compound 1 Form I was added to 1.0 mL of acetone/water or DMSO/water mixtures and stirred at 400 rpm and 25° C. for 1 week.

[9] = solids after equilibration in EtOH, 25° C., 2 weeks
[10] = solids after equilibration in EtOH
[11] = anti-solvent Water, about 2 mg of seeds added

O=C1CC[C@H](N2C(=O)c3cccc4c(Cc5ccc(CN6CCOCC6)cc5)ccc2c34)C(=O)N1 [Compound 1 Form I, (S)-3-(6-(4-(morpholinomethyl)benzyl)-2-oxobenzo[cd]indol-1(2H)-yl)piperidine-2,6-dione]
solubility ([1]; DCM, 25 °C, organic solvent or mixture): 8000 to 13000 µg/mL (≈ 17 to 27.7 mM) | solubility ([1]; DCM, 50 °C, organic solvent or mixture): 16000 to 25000 µg/mL (≈ 34.1 to 53.2 mM) | solubility ([1]; DCM:MeOH (v:v = 1:1), 25 °C, organic solvent or mixture, DCM:MeOH (v:v = 1:1), 25° C.): 17000 to 20000 µg/mL (≈ 36.2 to 42.6 mM) | solubility ([1]; DCM:MeOH (v:v = 1:1), 50 °C, organic solvent or mixture, DCM:MeOH (v:v = 1:1), 50° C.): 29000 to 33000 µg/mL (≈ 61.8 to 70.3 mM) | solubility ([1]; DMSO, 25 °C, organic solvent or mixture): 83000 to 125000 µg/mL (≈ 177 to 266 mM) | solubility ([1]; DMSO, 25 °C, organic solvent or mixture, in DMSO, solubilized at about 25° C.): ≥ 50000 µg/mL | solubility ([1]; DMSO, 50 °C, organic solvent or mixture): 167000 to 250000 µg/mL (≈ 356 to 532 mM) | solubility ([1]; Ethanol:Water (8:2, v:v), 25 °C, organic solvent or mixture, Ethanol:Water (8:2, v:v), 25° C.): < 5000 µg/mL | solubility ([1]; Ethanol:Water (8:2, v:v), 50 °C, organic solvent or mixture, Ethanol:Water (8:2, v:v), 50° C.): < 10000 µg/mL | solubility ([1]; MTBE, 25 °C, organic solvent or mixture): < 5000 µg/mL | solubility ([1]; MTBE, 50 °C, organic solvent or mixture): < 10000 µg/mL | solubility ([1]; THF, 25 °C, organic solvent or mixture): 8000 to 13000 µg/mL (≈ 17 to 27.7 mM) | solubility ([1]; THF, 50 °C, organic solvent or mixture): 16000 to 25000 µg/mL (≈ 34.1 to 53.2 mM) | solubility ([1]; THF:Water (v:v = 95:5), 25 °C, organic solvent or mixture, THF:Water (v:v = 95:5), 25° C.): 17000 to 20000 µg/mL (≈ 36.2 to 42.6 mM) | solubility ([1]; THF:Water (v:v = 95:5), 50 °C, organic solvent or mixture, THF:Water (v:v = 95:5), 50° C.): 40000 to 50000 µg/mL (≈ 85.2 to 106 mM) | solubility ([1]; acetone, 25 °C, organic solvent or mixture): < 5000 µg/mL | solubility ([1]; acetone, 50 °C, organic solvent or mixture): < 10000 µg/mL | solubility ([1]; acetonitrile, 25 °C, organic solvent or mixture): < 5000 µg/mL | solubility ([1]; acetonitrile, 50 °C, organic solvent or mixture): < 10000 µg/mL | solubility ([1]; ethanol, 25 °C, organic solvent or mixture): < 5000 µg/mL | solubility ([1]; ethanol, 50 °C, organic solvent or mixture): < 10000 µg/mL | solubility ([1]; ethyl acetate, 25 °C, organic solvent or mixture): < 5000 µg/mL | solubility ([1]; ethyl acetate, 50 °C, organic solvent or mixture): < 10000 µg/mL | solubility ([1]; heptane, 25 °C, organic solvent or mixture): < 5000 µg/mL | solubility ([1]; heptane, 50 °C, organic solvent or mixture): < 10000 µg/mL | solubility ([1]; methanol, 25 °C, organic solvent or mixture, approximate, visual observation): < 5000 µg/mL | solubility ([1]; methanol, 50 °C, organic solvent or mixture, approximate, visual observation): < 10000 µg/mL | solubility ([1]; water, 25 °C): < 5000 µg/mL | solubility ([1]; water, 50 °C): < 10000 µg/mL | stability of the form in water (equilibration experiments) ([2]; alone in water / pure water): very stable; also recorded: stable | XRPD ([2]; equilibration in ACN, 25° C., 2 weeks): Form I | XRPD ([2]; equilibration in Acetone, 25° C., 2 weeks): Form I | XRPD ([2]; equilibration in DCM, 25° C., 2 weeks): Form I | XRPD ([2]; equilibration in DCM:MeOH (v:v = 1:1), 25° C., 2 weeks): Form I | XRPD ([2]; equilibration in DCM:THF(v:v = 8:2), 25° C., 2 weeks): Form I | XRPD ([2]; equilibration in EA, 25° C., 2 weeks): Form I | XRPD ([2]; equilibration in EtOH, 25° C., 2 weeks): Form I | XRPD ([2]; equilibration in MeOH, 25° C., 2 weeks): Form I | XRPD ([2]; equilibration in THF, 25° C., 2 weeks, wet cake): Form I | XRPD ([2]; equilibration in THF:Water (v:v = 95:5), 25° C., 2 weeks): Form I | Melting onset [2, 9]: Melting onset: 239.0° C., | enthalpy [2, 9]: enthalpy: 107 J/g | residual DCM [2, 9]: 0.4% residual DCM | XRPD ([3]; equilibration in ACN): Form I | XRPD ([3]; equilibration in Acetone): Form I | XRPD ([3]; equilibration in DCM): Form I | XRPD ([3]; equilibration in DCM:MeOH (v:v = 1:1)): Form I | XRPD ([3]; equilibration in DCM:THF(v:v = 8:2)): Form I | XRPD ([3]; equilibration in EA): Form I | XRPD ([3]; equilibration in EtOH): Form I | XRPD ([3]; equilibration in MeOH): Form I | XRPD ([3]; equilibration in THF, wet cake): Form I | XRPD ([3]; equilibration in THF:Water (v:v = 95:5)): Form I | Melting onset [3, 10]: Melting onset: 239.5° C., | enthalpy [3, 10]: enthalpy: 109 J/g | residual DCM [3, 10]: 0.4% residual DCM | residual DMSO ([4]; DMSO/EtOH precipitate): 0.05 equiv. residual | residual DMSO ([4]; DMSO/MeOH precipitate): 0.14 equiv. residual | residual DMSO ([4]; DMSO/Water precipitate): 0.90 equiv. residual | Notes (appearance) ([4]; anti-solvent Acetone, held at 5° C. for 2 days, no solid obtained): Clear solution^a | Notes (appearance) ([4]; anti-solvent EtOAc): Clear solution | Notes (appearance) ([4]; anti-solvent EtOH): Suspension | XRPD ([4]; anti-solvent EtOH): − | Notes (appearance) ([4]; anti-solvent MeOH): Suspension | XRPD ([4]; anti-solvent MeOH, wet cake): − | Notes (appearance) ([4]; anti-solvent Water): Suspension | XRPD ([4]; anti-solvent Water): − | Notes (appearance) [4, 11]: Suspension^b | XRPD [4, 11]: − | Notes (form obtained) ([5]; slow evaporation from DCM): Form I | XRPD (form change) ([5]; slow evaporation from DCM at ambient condition): − | Notes (form obtained) ([5]; slow evaporation from MeOH/DCM(v:v = 1:1)): Form II | XRPD (form change) ([5]; slow evaporation from MeOH/DCM(v:v = 1:1) at ambient condition): + (Form changed detected.) | Notes (form obtained) ([5]; slow evaporation from THF): Form III | XRPD (form change) ([5]; slow evaporation from THF at ambient condition): + (Form changed detected.) | Notes (form obtained) ([5]; slow evaporation from THF:Water (v:v = 95:5)): Form III | XRPD (form change) ([5]; slow evaporation from THF:Water (v:v = 95:5) at ambient condition): + (Form changed detected.) | Melting onset ([6]; HCH1: 30° C. to 300° C. at 10° C./min, 300° C. to −20° C. at 20° C./min): Melting onset 231.4° ° C. | enthalpy ([6]; HCH1: cooling 300° C. to −20° C. at 20° C./min): C.; enthalpy 115 J/g | Melting onset ([6]; HCH2: 30° C. to 300° C. at 10° C./min, 300° C. to −20° C. at 2° C./min): Melting onset 231.3° ° C. | enthalpy ([6]; HCH2: cooling 300° C. to −20° C. at 2° C./min): C.; enthalpy 108 J/g | Stoichiometry: DCM ([7]; 1H-NMR, listed as Form I): 0.6% DCM | DSC enthalpy ([7]; DSC, 10° C./min): enthalpy 114 J/g | DSC melting onset ([7]; DSC, 10° C./min): 233.9° C.; | Thermogravimetry weight loss ([7]; TGA, 10° C./min, at 225° C.): About 2.0% | XRPD ([8]; Acetone, a.w. 0, 25° C.): Form I | XRPD ([8]; Acetone/Water (91:9, v:v), a.w. 1, 25° C.): Form I | XRPD ([8]; Acetone/Water (94:6, v:v), a.w. 0.5, 25° C.): Form I | XRPD ([8]; Acetone/Water (97:3, v:v), a.w. 0.3, 25° C.): Form I | XRPD ([8]; Acetone/Water (99:1, v:v), a.w. 0.1, 25° C.): Form I | XRPD ([8]; DMSO/Water (64:36, v:v), a.w. 0.5, 25° C.): Form I | XRPD ([8]; Water, a.w. 1, 25° C.): Form I | change of morphic form in solvents with high water content (water activity study) [8]: no significant changes to the morphic form | change of morphic form in solvents with high water content (water activity study) ([8]; listed as Form I): only Form I was obtained

Source: patent US20240391912A1, “MORPHIC FORMS OF CFT7455 AND METHODS OF MANUFACTURE THEREOF” (C4 THERAPEUTICS, INC., priority 2022, published 2024)
